# Data taken from paper PMC6100543, “Parthenolide Inhibits STAT3 Signaling by Covalently Targeting Janus Kinases” (Molecules : A Journal of Synthetic Chemistry and Natural …, 2018).
# Biological target: T1, JAK2 (Mus musculus, UniProt Q62120)
# T1 construct: JAK2-FLAG, overexpressed in HEK293 and immunoprecipitated
# Test: in vitro kinase assay with immunoprecipitated JAK2-FLAG; LC-MS/MS of PN-modified tryptic peptides
# Assay type: biochemical
# T1 sequence (Q62120 whole entry): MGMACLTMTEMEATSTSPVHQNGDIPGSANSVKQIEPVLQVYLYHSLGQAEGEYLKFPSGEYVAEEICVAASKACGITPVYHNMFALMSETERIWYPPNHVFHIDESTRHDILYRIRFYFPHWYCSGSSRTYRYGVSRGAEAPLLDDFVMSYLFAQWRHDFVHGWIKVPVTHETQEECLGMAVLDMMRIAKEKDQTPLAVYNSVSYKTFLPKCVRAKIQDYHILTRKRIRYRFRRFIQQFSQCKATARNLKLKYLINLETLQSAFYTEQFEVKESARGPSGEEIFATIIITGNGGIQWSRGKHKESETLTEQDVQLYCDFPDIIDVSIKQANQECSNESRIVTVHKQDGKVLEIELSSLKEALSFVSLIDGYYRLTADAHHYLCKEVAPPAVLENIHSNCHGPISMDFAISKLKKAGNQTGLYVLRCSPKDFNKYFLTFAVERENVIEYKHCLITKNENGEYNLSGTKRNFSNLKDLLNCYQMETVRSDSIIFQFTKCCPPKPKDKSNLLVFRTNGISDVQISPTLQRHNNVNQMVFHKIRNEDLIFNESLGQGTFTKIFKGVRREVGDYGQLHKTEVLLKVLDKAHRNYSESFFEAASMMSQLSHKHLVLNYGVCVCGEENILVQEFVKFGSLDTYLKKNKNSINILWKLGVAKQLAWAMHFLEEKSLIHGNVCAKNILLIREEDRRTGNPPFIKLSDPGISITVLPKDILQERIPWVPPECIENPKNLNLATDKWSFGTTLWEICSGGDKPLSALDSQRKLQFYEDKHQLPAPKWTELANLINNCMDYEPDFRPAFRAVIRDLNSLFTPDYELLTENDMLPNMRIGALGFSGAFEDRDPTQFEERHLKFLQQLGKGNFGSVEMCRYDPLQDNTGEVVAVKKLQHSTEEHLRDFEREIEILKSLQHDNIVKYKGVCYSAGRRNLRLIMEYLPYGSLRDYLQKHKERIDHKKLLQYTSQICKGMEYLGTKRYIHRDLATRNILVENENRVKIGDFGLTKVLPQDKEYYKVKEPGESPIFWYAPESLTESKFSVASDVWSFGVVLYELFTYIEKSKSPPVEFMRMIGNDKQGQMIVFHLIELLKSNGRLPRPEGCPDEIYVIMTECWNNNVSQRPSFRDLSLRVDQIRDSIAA
smiles,measurement,value
"C=C1C(=O)O[C@H]2[C@H]1CC/C(C)=C/CC[C@@]1(C)O[C@@H]21 [PN, parthenolide]",IC50,3.94 µM
